Consider four compounds from patent publication EP1056745B1, “6,9-DISUBSTITUTED 2- TRANS-(4- AMINOCYCLOHEXYL) AMINO]PURINES” (Aventis Pharmaceuticals Inc., priority 1998, dated 1999).

The subject of experiment [1] is PC-3 Human Prostate Tumor. The experiment in a line: Subrenal capsule assay, inhibition of PC-3 tumor growth. The class given is in vivo, Nude Mice. The following applies: for V/V0 (mean ± s.e.m.): 12 days, Experiment # 1; for %T/C: day 12, Experiment # 1. The method, then:
Nude mice were housed in microisolator cages under positive air pressure. Surgical procedures and dosing were performed in a laminar flow cabinet. The subrenal capsule assay was performed as described in Bogden, A. E., Kelton, D. E., Cobb, W. R. and Esber, H. J. A rapid screening method for testing chemotherapeutic agents against human tumor xenografts. In: D. P. Houchens and A. A. Ovejera (eds.), Proceedings of the Symposium on the Use of Athymic (Nude) Mice in Cancer Research, pp 231-250. New York: Gustav Fischer New York, Inc. 1978. Briefly, tumors of 400-500 mm^3 obtained from maintenance mice were cut into 1 mm^3 pieces and the sizes checked using an ocular micrometer and a dissecting microscope. After exteriorization of the kidney, tumor pieces were implanted under the capsule of the kidneys of male nude mice (6-8 weeks of age) using a 13 Ga trochar. After implantation, the longest and shortest diameters of the tumor piece were measured using the ocular micrometer and a dissecting microscope. The kidney was placed back into the body cavity and the body wall incision closed with silk sutures and the skin incision closed with wound clips. Drug treatment was begun on the day following implantation and continued for 12 days at which time the kidneys were again exteriorized and tumor size measured as described above. Tumor volume was calculated by the formula, V = length x width^2/2 as described in Houchens, D. P., Ovejera, A. A., and Barker, A. D. The therapy of human tumors in athymic (nude) mice. In : D. P. Houchens and A. A. Ovejera (eds.), Proceedings of the Symposium on the Use of Athymic (Nude) Mice in Cancer Research, pp. 267-280. New York: Gustav Fischer New York, Inc., 1978.

A further experiment deals with proliferating PC12 cells. Conditions: cited from earlier work.
Experiment [2] deals with neuronal PC12 cells and sympathetic neurons. Conditions: two model systems of neuronal survival; cited from earlier work.
The next experiment relates to rat sympathetic neurons. The following applies: camptothecin-treated; cited from earlier work.
For the next experiment, the system named is cortical neurons. Conditions: cited from earlier work; for IC50: protection against camptothecin-induced death.
Experiment [3] has as its system cAMP- and cGMP-dependent kinases, and protein kinase C. Conditions: cited from earlier work.
For experiment [4], the system named is CDK-cyclin protein kinases. Conditions: moderate inhibitory activity; cited from earlier work.
Experiment [5] concerns neuronally differentiated PC12 cells. The following applies: cited from earlier work; for concentration of maximal protection from death: camptothecin-treated; for cell death: day 6, in the presence or absence of camptothecin, both or individual.
The mark [6] stands for this setting: camptothecin-treated neuronal cells.

Consider `Cl.Cl.N[C@H]1CC[C@H](Nc2nc(NCc3cccc(I)c3)c3ncn(C4CCCC4)c3n2)CC1` [Example 1, 2-[Trans-(4-aminocyclohexyl)amino]-6-(3-iodobenzylamino)-9-cyclopentylpurine dihydrochloride], for which, in experiment [1] (1 mg/kg i.p. daily), the “V/V0 (mean ± s.e.m.)” value worked out at 4.8 ± 3.1 and the “%T/C” value is 109%. For the same compound, in experiment [1] (3 mg/kg i.p. daily), the “V/V0 (mean ± s.e.m.)” value was determined as 2.0 ± 1.0 and the “%T/C” value is given as 44%.

`Cn1cnc2c(NCc3ccccc3)nc(NCCO)nc21` [Olomoucine, 6-(benzylamino)-2-[(2-hydroxyethyl)amino]-9-methylpurine]: the “minimum concentration that fully inhibits DNA synthesis” value in the experiment with proliferating PC12 cells was 200 µM. The “death of neuronal cells” value in experiment [2] is “suppress the death”. The “concentration of maximal protection from death” value (“concentration … from death” below) (in the experiment with rat sympathetic neurons; in experiment [5]) was 200 µM each time. The IC50 with cortical neurons was 100 µM; in experiment [4], around 7 µM. Besides, in experiment [3], the “effect on other major protein kinases” value is reported as “no effect”. In experiment [5], the cell death result is on record as “approximately 30%”.

In the case of `CN1CC[C@H](c2c(O)cc(O)c3c(=O)cc(-c4ccccc4Cl)oc23)[C@H](O)C1` [flavopiridol], the “minimum concentration that fully inhibits DNA synthesis” value with proliferating PC12 cells is on record as 1 µM. The “death of neuronal cells” value in experiment [2] was “suppress the death”. Moreover, the “concentration … from death” value with rat sympathetic neurons was 1 µM. Also, the IC50 in the experiment with cortical neurons is 0.1 µM. In addition, in experiment [5], the “concentration … from death” value is recorded as 1 µM and the cell death result is “approximately 30%”.

On to `Cn1cnc2nc(NCCO)nc(NCc3ccccc3)c21` [iso-olomoucine], for which the “prevention of cell death” value (in the experiment on cortical neurons (setting [6]); in experiment [5] (setting [6])) was “failed to prevent the cell death” in each case.

By IC50 is commonly meant the concentration that inhibits the measured activity by half.
